The values below come from PubChem BioAssay AID248 (DTP/NCI, 2004).

Several values for one entry are separate records, joined by “and”; a condition that tells them apart may be missing. Equal values may be shown once. Inconclusive results and toxic doses are left out.

The assay relates to L1210 leukemia ip in BDF1 mice, survival T/C. Description: NCI In Vivo Anticancer Drug Screen. Data for tumor model L1210 Leukemia (intraperitoneal) in B6D2F1 (BDF1) mice. Particulars: endpoint: mean survival time, higher = longer survival. A digest of the protocol:
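Tumor was transplanted into mice, which were then dosed with test compound or vehicle alone. Survival was recorded for each group, and the treated figure was expressed relative to the control figure.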

[1] abbreviates: dose: 100.0 mg/kg/injection, schedule: Q01DX001 (ip), vehicle: saline.
[2] abbreviates: dose: 200.0 mg/kg/injection, schedule: Q01DX001 (ip), vehicle: saline.
[3] abbreviates: dose: 400.0 mg/kg/injection, schedule: Q01DX001 (ip), vehicle: saline.
Where [4] appears, read: dose: 50.0 mg/kg/injection, schedule: Q01DX009 (ip), vehicle: Klucel (hydroxypropylcellulose) (HPC).
[5] abbreviates: dose: 100.0 mg/kg/injection, schedule: Q01DX009 (ip), vehicle: Klucel (hydroxypropylcellulose) (HPC).
Where [6] appears, read: dose: 100.0 mg/kg/injection, schedule: Q01DX009 (ip), vehicle: saline with Tween-80.
Setting [7] is: dose: 200.0 mg/kg/injection, schedule: Q01DX009 (ip), vehicle: saline with Tween-80.
The mark [8] stands for this setting: dose: 100.0 mg/kg/injection, schedule: Q04DX003 (ip), vehicle: saline with Tween-80.
[9] abbreviates: dose: 200.0 mg/kg/injection, schedule: Q04DX003 (ip), vehicle: saline with Tween-80.
The mark [10] stands for this setting: dose: 400.0 mg/kg/injection, schedule: Q04DX003 (ip), vehicle: saline with Tween-80.
Where [11] appears, read: dose: 50.0 mg/kg/injection, schedule: Q04DX002 (ip), vehicle: Klucel (hydroxypropylcellulose) (HPC).
Setting [12] is: dose: 100.0 mg/kg/injection, schedule: Q04DX002 (ip), vehicle: Klucel (hydroxypropylcellulose) (HPC).
Where [13] appears, read: dose: 100.0 mg/kg/injection, schedule: Q01DX001 (ip), vehicle: Klucel (hydroxypropylcellulose) (HPC).
Setting [14] is: dose: 200.0 mg/kg/injection, schedule: Q01DX001 (ip), vehicle: Klucel (hydroxypropylcellulose) (HPC).
[15] abbreviates: dose: 100.0 mg/kg/injection, schedule: Q04DX003 (ip), vehicle: Klucel (hydroxypropylcellulose) (HPC).
Setting [16] is: dose: 200.0 mg/kg/injection, schedule: Q01DX009 (ip), vehicle: Klucel (hydroxypropylcellulose) (HPC).
Where [17] appears, read: dose: 200.0 mg/kg/injection, schedule: Q04DX003 (ip), vehicle: Klucel (hydroxypropylcellulose) (HPC).
[18] abbreviates: dose: 400.0 mg/kg/injection, schedule: Q01DX009 (ip), vehicle: Klucel (hydroxypropylcellulose) (HPC).
Setting [19] is: dose: 400.0 mg/kg/injection, schedule: Q04DX003 (ip), vehicle: Klucel (hydroxypropylcellulose) (HPC).

Take `CC(Cl)CNC(=O)N(CC(C)Cl)N=O` (stereo not drawn): the T/C (dose: 8.0 mg/kg/injection, schedule: Q01DX001 (ip), vehicle: carboxymethylcellulose (CMC)) was 108 % of control; the T/C (dose: 16.0 mg/kg/injection, schedule: Q01DX001 (ip), vehicle: carboxymethylcellulose (CMC)) is 101 % of control; the T/C (dose: 31.0 mg/kg/injection, schedule: Q01DX001 (ip), vehicle: carboxymethylcellulose (CMC)) is 97 % of control; the T/C (dose: 62.0 mg/kg/injection, schedule: Q01DX001 (ip), vehicle: carboxymethylcellulose (CMC)) was 100 % of control; the T/C (dose: 125.0 mg/kg/injection, schedule: Q01DX001 (ip), vehicle: carboxymethylcellulose (CMC)) is 97 % of control; the T/C (dose: 250.0 mg/kg/injection, schedule: Q01DX001 (ip), vehicle: carboxymethylcellulose (CMC)) was 101 % of control. Besides, the T/C is, setting by setting: (dose: 375.0 mg/kg/injection, schedule: Q01DX001 (ip), vehicle: carboxymethylcellulose (CMC)) 103 % of control; (dose: 500.0 mg/kg/injection, schedule: Q01DX001 (ip), vehicle: carboxymethylcellulose (CMC)) 122 % of control; (dose: 750.0 mg/kg/injection, schedule: Q01DX001 (ip), vehicle: carboxymethylcellulose (CMC)) 197 % of control; (dose: 1000.0 mg/kg/injection, schedule: Q01DX001 (ip), vehicle: carboxymethylcellulose (CMC)) 240 % of control.

Take `C=CCNC(=O)c1ccc(C(=O)NCC=C)cc1`: the T/C under setting [1] is 102 % of control, the T/C under setting [2] is 102 % of control and the T/C under setting [3] is 98 % of control.

Regarding `CCCCCP(=O)(CCCC)CCCCC`, the T/C was 89 % of control under setting [4] and 89 % of control under setting [5].

For `O=C(O)c1ccccc1-c1c2ccc(=O)c(Br)c-2oc2c(Br)c(O)ccc12`, the T/C (dose: 50.0 mg/kg/injection, schedule: Q01DX001 (ip), vehicle: saline) is 104 % of control; the T/C under setting [1] was 96 % of control; the T/C under setting [2] is 98 % of control; the T/C under setting [3] was 102 % of control.

`C[SH+]c1ccccc1N=Cc1ccccn1.C[SH+]c1ccccc1N=Cc1ccccn1.[Ni+2].[O-][Cl+3]([O-])([O-])[O-]`: the T/C (dose: 88.8 mg/kg/injection, schedule: Q01DX001 (ip), vehicle: saline) was 93 % of control and 96 % of control; the T/C under setting [1] is 105 % of control; the T/C (dose: 133.4 mg/kg/injection, schedule: Q01DX001 (ip), vehicle: saline) is 96 % of control and 105 % of control; the T/C (dose: 300.0 mg/kg/injection, schedule: Q01DX001 (ip), vehicle: saline) is 95 % of control and 102 % of control.

For `O=C1CC(C(=O)O)C2(CCCCC2)O1` (stereo not drawn), the T/C reads like this: (dose: 100.0 mg/kg/injection, schedule: Q04DX002 (ip), vehicle: saline with Tween-80) 104 % of control; (dose: 200.0 mg/kg/injection, schedule: Q04DX002 (ip), vehicle: saline with Tween-80) 101 % of control; (dose: 400.0 mg/kg/injection, schedule: Q04DX002 (ip), vehicle: saline with Tween-80) 101 % of control.

For the compound `CC1(C)C2CCC(CCOC(=O)COc3ccc(Cl)cc3Cl)C1C2` (stereo not drawn), the T/C was 104 % of control under setting [6] and 94 % of control under setting [7].

Consider `CC(C)(C(=O)Oc1ccccc1)C(=O)Oc1ccccc1`, for which the T/C runs as follows: (dose: 50.0 mg/kg/injection, schedule: Q01DX009 (ip), vehicle: saline with Tween-80) 95 % of control; under setting [6], 100 % of control; under setting [7], 88 % of control.

Consider `O=[N+]([O-])c1ccccc1N=Nc1c(O)[nH]c2ccc(Cl)cc12`, for which the T/C runs as follows: under setting [1], 95 % of control; under setting [3], 92 % of control.

In the case of `CCCCCCCCCCOC(=O)C[n+]1cccc(C(N)=O)c1`, the T/C reads like this: (dose: 12.5 mg/kg/injection, schedule: Q04DX003 (ip), vehicle: saline) 96 % of control; (dose: 25.0 mg/kg/injection, schedule: Q04DX003 (ip), vehicle: saline) 102 % of control; (dose: 50.0 mg/kg/injection, schedule: Q04DX003 (ip), vehicle: saline) 93 % of control.

For the compound `O=[N+]([O-])c1ccc(N=C(Cl)c2ccccc2)cc1`, the T/C under setting [8] was 98 % of control, the T/C under setting [9] is 98 % of control and the T/C under setting [10] is 104 % of control.

As for `CCC(CO)NCc1cc(=O)[nH]c(=O)[nH]1` (stereo not drawn), the T/C was 96 % of control (dose: 100.0 mg/kg/injection, schedule: Q04DX003 (ip), vehicle: saline); 96 % of control (dose: 200.0 mg/kg/injection, schedule: Q04DX003 (ip), vehicle: saline); 102 % of control (dose: 400.0 mg/kg/injection, schedule: Q04DX003 (ip), vehicle: saline).

In the case of `COc1ccc(OC)c(NC(=O)CCl)c1`, the T/C is, setting by setting: (dose: 25.0 mg/kg/injection, schedule: Q01DX009 (ip), vehicle: Klucel (hydroxypropylcellulose) (HPC)) 96 % of control; (dose: 25.0 mg/kg/injection, schedule: Q04DX002 (ip), vehicle: Klucel (hydroxypropylcellulose) (HPC)) 96 % of control; under setting [4], 98 % of control; under setting [11], 93 % of control; under setting [5], 89 % of control and 90 % of control; under setting [12], 93 % of control and 106 % of control.

On to `CCOC(=O)C(C#N)(C1C=CCC1)C1C=CCC1` (stereo not drawn), for which the T/C was 100 % of control under setting [8], 100 % of control under setting [9] and 100 % of control under setting [10].

For `N=c1ccccn1CC(O)COc1ccccc1` (stereo not drawn), the T/C (dose: 100.0 mg/kg/injection, schedule: Q01DX001 (ip), vehicle: carboxymethylcellulose (CMC)) was 92 % of control.

As to `Clc1nc2ccccc2nc1C(Cl)Cl`, the T/C was 101 % of control under setting [13] and 110 % of control under setting [14].

Regarding `CCCCCCCCCCCCCCCCS(=O)(=O)c1ccc(S(=O)(=O)F)cc1NC(=O)C(F)(F)F`, the T/C reads like this: under setting [6], 87 % of control; under setting [8], 92 % of control; under setting [7], 97 % of control; under setting [9], 93 % of control; (dose: 400.0 mg/kg/injection, schedule: Q01DX009 (ip), vehicle: saline with Tween-80) 105 % of control.

For the compound `CCOC(=O)C1(C(=O)OCC)NC(=O)CC1c1ccccc1` (stereo not drawn), the T/C under setting [5] is 94 % of control; the T/C under setting [15] was 92 % of control; the T/C under setting [16] is 101 % of control; the T/C under setting [17] was 100 % of control; the T/C under setting [18] was 92 % of control; the T/C under setting [19] is 105 % of control.

`COC(=O)c1ccccc1NC(=O)Nc1ccccc1F`: the T/C reads like this: under setting [4], 90 % of control; under setting [5], 96 % of control; under setting [16], 93 % of control.

Take `CC(=O)NC(C)c1ccccc1` (stereo not drawn): the T/C was 108 % of control under setting [11]; 96 % of control (dose: 75.0 mg/kg/injection, schedule: Q01DX009 (ip), vehicle: Klucel (hydroxypropylcellulose) (HPC)); 108 % of control under setting [12]; 89 % of control (dose: 150.0 mg/kg/injection, schedule: Q01DX009 (ip), vehicle: Klucel (hydroxypropylcellulose) (HPC)); 108 % of control (dose: 200.0 mg/kg/injection, schedule: Q04DX002 (ip), vehicle: Klucel (hydroxypropylcellulose) (HPC)); 100 % of control (dose: 300.0 mg/kg/injection, schedule: Q01DX009 (ip), vehicle: Klucel (hydroxypropylcellulose) (HPC)). Further, the T/C (dose: 400.0 mg/kg/injection, schedule: Q04DX002 (ip), vehicle: Klucel (hydroxypropylcellulose) (HPC)) was 111 % of control.

For the compound `Oc1c(Br)cc(Br)cc1/C=N/N=C/c1cc(Br)cc(Br)c1O`, the T/C reads like this: under setting [13], 90 % of control; under setting [5], 98 % of control; under setting [15], 90 % of control; under setting [14], 90 % of control; under setting [17], 97 % of control; (dose: 400.0 mg/kg/injection, schedule: Q01DX001 (ip), vehicle: Klucel (hydroxypropylcellulose) (HPC)) 90 % of control. The T/C is 88 % of control under setting [18] and 94 % of control under setting [19].
